# Data published in PubChem BioAssay (NCI).
#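 Grown in 96-well plates, cells were treated for 48 hours with each compound at five concentrations. Insufficient inhibition: endpoint recorded as highest concentration tested. TGI: total growth inhibition.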
# Tests used:
# Assay in all cases: NCI-60 cell line screen, 48 h
# SR leukemia = system: SR leukemia
# A549 NSCLC = system: A549 NSCLC
# SK-OV-3 ovarian = system: SK-OV-3 ovarian
# HL-60(TB) leukemia = system: HL-60(TB) leukemia
# CAKI-1 renal = system: CAKI-1 renal
# NCI-H23 lung = system: NCI-H23 lung
# HCC-2998 colon = system: HCC-2998 colon
# SNB-19 CNS = system: SNB-19 CNS
# K-562 leukemia = system: K-562 leukemia
# KM12 colon = system: KM12 colon
# NCI-H226 lung = system: NCI-H226 lung
# COLO 205 colon = system: COLO 205 colon
# OVCAR-4 ovarian = system: OVCAR-4 ovarian
# U251 CNS = system: U251 CNS
# SK-MEL-5 melanoma = system: SK-MEL-5 melanoma
# NCI-H522 lung = system: NCI-H522 lung
# 786-0 renal = system: 786-0 renal
# UO-31 renal = system: UO-31 renal
# LOX IMVI melanoma = system: LOX IMVI melanoma
SMILES,TGI (SR leukemia) [µM],TGI (A549 NSCLC) [µM],TGI (SK-OV-3 ovarian) [µM],TGI (HL-60(TB) leukemia) [µM],TGI (CAKI-1 renal) [µM],TGI (NCI-H23 lung) [µM],TGI (HCC-2998 colon) [µM],TGI (SNB-19 CNS) [µM],TGI (K-562 leukemia) [µM],TGI (KM12 colon) [µM],TGI (NCI-H226 lung) [µM],TGI (COLO 205 colon) [µM],TGI (OVCAR-4 ovarian) [µM],TGI (U251 CNS) [µM],TGI (SK-MEL-5 melanoma) [µM],TGI (NCI-H522 lung) [µM],TGI (786-0 renal) [µM],TGI (UO-31 renal) [µM],TGI (LOX IMVI melanoma) [µM]
COc1ccc2[nH]c3c(C)c4cnccc4c(C)c3c2c1,> 10,3.65,> 10,4.64,> 10,> 10,3.35,> 10,> 10,2.83,9.27,4.44,5.17,3.24,> 10,4.43,1.64,,
O=C(O)c1cc(N(Cc2ccccc2O)Cc2cc(O)ccc2O)ccc1O,> 100,> 100,> 100,> 100,,> 100,> 100,> 100,> 100,> 100,> 100,> 100,> 100,> 100,> 100,,> 100,> 100,> 100
O=C1C=C(Nc2ccccc2C(=O)CC(=O)C(=O)Nc2ccc(Cl)c(Cl)c2)c2ccccc2C1=O,> 100,> 100,> 100,,> 100,> 100,> 100,> 100,> 100,> 100,> 100,> 100,> 100,> 100,20.4,54.5,> 100,> 100,
NNC(=S)N/N=C/C(Cl)=C(\Cl)C(=O)O,> 100,> 100,,> 100,> 100,> 100,> 100,> 100,> 100,,> 100,,> 100,> 100,> 100,> 100,> 100,> 100,> 100
N#Cc1ccccc1Nc1ccccc1S,> 100,> 100,> 100,> 100,> 100,> 100,,60.5,> 100,> 100,43.9,> 100,> 100,,44.8,,78.3,72.4,33.6
COC(=O)CNC(=O)Nc1cc(N2C(=O)ON3C2C(C)(C)N(O)C3(C)C)ccc1C (stereo not drawn),> 100,> 100,> 100,,> 100,> 100,> 100,> 100,> 100,> 100,> 100,> 100,> 100,> 100,> 100,> 100,> 100,> 100,> 100
Cc1cc(C)c2c(c1)C(=O)C1(C2)Cc2c(ccc(C)c2C)C1=O (stereo not drawn),> 100,> 100,,> 100,> 100,,> 100,> 100,> 100,> 100,> 100,> 100,> 100,> 100,> 100,> 100,> 100,> 100,> 100
